Measured values reported in patent EP0049049A1, “5-Amino-tetrazole derivatives, processes for their preparation and pharmaceutical compositions containing them” (GLAXO GROUP LIMITED, priority 1980, dated 1982).

These compounds were tested on perfused rat stomach (assay: perfused rat stomach test (inhibition of gastric acid secretion stimulated via histamine receptors)). Conditions: not given.
Type: in vivo
Excerpt: Certain novel heterocyclic derivatives have now been found which have potent activity as H2-antagonists. […] Certain compounds according to the invention have the advantage of an extended duration of action .

Structure (SMILES) | ED50
CN(C)Cc1cc(CSCCNc2nnnn2C)cs1 [5(b), N-[2-[[5-(dimethylamino)methyl-3-thienylmethyl]thio]ethyl]-1-methyl-lH-tetrazol-5-amine] | less than 0.22 mg/kg

Same assay, conditions: read-out: ED50

Structure (SMILES) | ED50
CCCCCCNCc1cccc(OCCCNc2nnnn2C)c1 [7(b), N-[3-[3-[(hexylamino)methyl]phenoxy]propyl]-1-methyl-1H-tetrazol-5-amine hydrate (4:1)] | < 0.22 mg/kg
Cn1nnnc1NCCCOc1cccc(CN2CCCCC2)c1 [l(a), 1-Methyl-N-[3-[3-(1-piperidinylmethyl)phenoxy]propyl]-1H-tetrazol-5-amine] | < 0.22 mg/kg
CC(C)n1nnnc1NCCCCOc1cccc(CN2CCCCC2)c1 [1(c), l-(l-methylethyl)-N-[4-[3-(1-piperidinylmethyl)phenoxy]butyl]-1H-tetrazol-5-amine] | < 0.22 mg/kg
CN(C)Cc1cccc(OCCCNc2nnnn2C)c1 [l(d), l-methyl-N-[[3-[3-(dimethylamino)methyl]phenoxy]propyl]-lH-tetrazol-5-amine] | < 0.22 mg/kg
OCCn1nnnc1NCCCOc1cccc(CN2CCCCC2)c1 [Example 4, 5-[[3-[3-(1-piperidinylmethyl)phenoxy]propyl]amino]-1H-tetrazol-1-(2-ethanol) hydrate (4 : 1)] | < 0.22 mg/kg
